Measured values from patent publication US7422733B2, “Linkable sialyl Lewis X analogs” (Bracco International B.V., priority 2000, dated 2008).

Key:
E-selectin [1] = target: T1, E-selectin (Homo sapiens, UniProt P16581); assay: binding of radiolabeled analog 3b to human aortic endothelial cells in vitro (E-selectin binding assay); set-up: endogenous in cells; host or cells: human aortic endothelial cells, stimulated with TNF-alpha or unstimulated
T1 sequence (P16581 22-610): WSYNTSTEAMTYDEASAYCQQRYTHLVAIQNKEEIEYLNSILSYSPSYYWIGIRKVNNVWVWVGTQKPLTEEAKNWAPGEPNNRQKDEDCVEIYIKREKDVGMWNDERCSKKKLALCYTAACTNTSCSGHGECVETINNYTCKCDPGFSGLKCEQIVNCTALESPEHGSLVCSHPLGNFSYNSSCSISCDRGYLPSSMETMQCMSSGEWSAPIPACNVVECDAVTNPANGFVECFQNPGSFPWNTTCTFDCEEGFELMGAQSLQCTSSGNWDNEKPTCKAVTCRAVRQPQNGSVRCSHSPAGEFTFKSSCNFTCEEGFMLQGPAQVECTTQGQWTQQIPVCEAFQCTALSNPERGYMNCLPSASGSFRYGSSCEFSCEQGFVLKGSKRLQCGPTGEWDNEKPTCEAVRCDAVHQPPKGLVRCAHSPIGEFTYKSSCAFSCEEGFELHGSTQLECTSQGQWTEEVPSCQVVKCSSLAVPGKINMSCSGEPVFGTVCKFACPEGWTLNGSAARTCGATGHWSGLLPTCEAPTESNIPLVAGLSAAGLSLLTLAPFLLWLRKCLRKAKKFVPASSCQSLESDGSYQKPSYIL
Method: We evaluated the ability of the radiolabeled acetamido-phenyl Sialyl Lewis^x analog 3b to bind to human aortic endothelial cells in vitro. […] S. A. DeFrees et al., J. Am. Chem. Soc., 117:66-79 (1995). […] The binding sites were specific to native Sialyl Lewis^x, since it was shown that cold unlabeled Sialyl Lewis^x (formula A) at a concentration of 10 mM displaced close to 50% of the bound counts at 0.2 mM concentration.

E-selectin [2] = target: T1, E-selectin; details: in vitro, published value; cited from earlier work

## CC(=O)N[C@H]1[C@H](Oc2ccc(N[14C](C)=O)cc2)O[C@H](CO)[C@@H](O[C@@H]2O[C@H](CO)[C@H](O)[C@H](O[C@]3(C(=O)O)C[C@H](O)[C@@H](NC(C)=O)[C@H]([C@H](O)[C@H](O)CO)O3)[C@H]2O)[C@@H]1O[C@@H]1O[C@@H](C)[C@@H](O)[C@@H](O)[C@@H]1O [compound 3b]
E-selectin [1]
  behaviour in E-selectin binding assay compared to native Sialyl Lewis^x: superior to native Sialyl Lewis^x
E-selectin [1]; activated human aortic endothelial cells, 14C-labeled analog
  concentrations at which the analog bound significantly: 0.1-0.2 mM
E-selectin [1]; cells stimulated with TNF-α vs unstimulated control cells
  increase in the extent of binding in TNF-α stimulated cells over unstimulated control cells: two-fold increase
E-selectin [1]; compared with published value of 1-2 mM
  binding relative to published Kd of native Sialyl Lewis^x: ten fold greater

## CC(=O)NC1C(O)OC(CO)C(OC2OC(CO)C(O)C(OC3(C(=O)O)CC(O)C(NC(C)=O)C([C@H](O)[C@H](O)CO)O3)C2O)C1OC1OC(C)C(O)C(O)C1O (stereo partly drawn) [Sialyl Lewis^x, sialyl Lewis X]
E-selectin [2]
  Kd: 1000 to 2000 µM
E-selectin [1]; cold unlabeled competitor at 10 mM, bound 3b counts at 0.2 mM
  displacement of bound counts: ~50%
